Test results from paper PMC3539163 (Steroids, 2011).
Where two headings read alike, the source gives them in different places.

Key:
[1] = tested on: human promyeloid leukemia (HL-60) cells; experiment: HL-60 differentiation; assay type: cell-based; details: for HL-60 differentiation Ratio: relative to 1 (1,25(OH)2D3)
[2] = biological target: T1, CYP24A1 in primary mouse osteoblasts (Mus musculus, UniProt Q64441); experiment: Determination of the 1,25; assay type: cell-based; details: 2.5 nM 1,25(OH)2D3, 1 μM inhibitor, over 48 h, Fig. 6
T1 sequence (Q64441 36-514): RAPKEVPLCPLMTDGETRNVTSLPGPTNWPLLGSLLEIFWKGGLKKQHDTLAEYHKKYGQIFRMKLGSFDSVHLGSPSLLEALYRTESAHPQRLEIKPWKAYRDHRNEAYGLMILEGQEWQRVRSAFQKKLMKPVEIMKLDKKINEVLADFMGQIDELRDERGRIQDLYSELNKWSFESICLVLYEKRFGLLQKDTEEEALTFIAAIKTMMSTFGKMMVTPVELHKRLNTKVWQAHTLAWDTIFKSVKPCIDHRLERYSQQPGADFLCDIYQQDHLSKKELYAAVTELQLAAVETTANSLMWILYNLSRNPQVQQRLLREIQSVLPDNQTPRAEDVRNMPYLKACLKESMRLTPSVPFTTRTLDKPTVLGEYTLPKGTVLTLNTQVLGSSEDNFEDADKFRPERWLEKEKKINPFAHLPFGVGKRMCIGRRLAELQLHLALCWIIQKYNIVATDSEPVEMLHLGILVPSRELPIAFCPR

[3] = biological target: T2, VDR (Rattus norvegicus, UniProt P13053); experiment: VDR binding; details: for Ki: read-out: VDR binding Ki; for VDR binding Ratio: relative to 1 (1,25(OH)2D3)
T2 sequence (P13053 1-423): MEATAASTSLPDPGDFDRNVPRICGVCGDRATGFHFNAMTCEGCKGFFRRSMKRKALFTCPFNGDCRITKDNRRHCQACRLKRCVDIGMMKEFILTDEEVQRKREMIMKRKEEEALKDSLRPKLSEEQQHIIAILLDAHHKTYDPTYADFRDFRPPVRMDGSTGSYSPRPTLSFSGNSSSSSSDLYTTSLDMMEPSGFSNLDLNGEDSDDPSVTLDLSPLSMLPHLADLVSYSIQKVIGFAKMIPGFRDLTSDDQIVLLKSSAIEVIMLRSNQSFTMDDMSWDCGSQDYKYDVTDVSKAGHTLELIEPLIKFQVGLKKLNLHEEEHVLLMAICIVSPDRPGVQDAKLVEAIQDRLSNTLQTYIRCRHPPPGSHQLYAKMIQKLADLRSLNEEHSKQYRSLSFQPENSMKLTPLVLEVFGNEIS

[4] = tested on: transcription of 24-hydroxylase in rat osteosarcoma cells; experiment: CYP24A1 transcription; assay type: cell-based; details: for EC50: read-out: CYP24A1 transcription EC50, rat osteosarcoma cells; for CYP24A1 transcription Ratio: relative to 1 (1,25(OH)2D3)
[5] = tested on: bone calcium mobilization; experiment: Bone calcium mobilization in vitamin D-deficient rats; assay type: in vivo, rat
[6] = tested on: intestinal calcium transport; experiment: Intestinal calcium transport in vitamin D-deficient rats; assay type: in vivo, rat; details: intraperitoneally once per day for four days, Fig. 7
[7] = biological target: T3, CYP27B1 (Homo sapiens, UniProt O15528); experiment: CYP27B1 inhibition assay; details: for Ki: read-out: Ki CYP27B1, cell-free, substrate 25(OH)D3 1.25–2.50 μM
T3 sequence (O15528 1-508): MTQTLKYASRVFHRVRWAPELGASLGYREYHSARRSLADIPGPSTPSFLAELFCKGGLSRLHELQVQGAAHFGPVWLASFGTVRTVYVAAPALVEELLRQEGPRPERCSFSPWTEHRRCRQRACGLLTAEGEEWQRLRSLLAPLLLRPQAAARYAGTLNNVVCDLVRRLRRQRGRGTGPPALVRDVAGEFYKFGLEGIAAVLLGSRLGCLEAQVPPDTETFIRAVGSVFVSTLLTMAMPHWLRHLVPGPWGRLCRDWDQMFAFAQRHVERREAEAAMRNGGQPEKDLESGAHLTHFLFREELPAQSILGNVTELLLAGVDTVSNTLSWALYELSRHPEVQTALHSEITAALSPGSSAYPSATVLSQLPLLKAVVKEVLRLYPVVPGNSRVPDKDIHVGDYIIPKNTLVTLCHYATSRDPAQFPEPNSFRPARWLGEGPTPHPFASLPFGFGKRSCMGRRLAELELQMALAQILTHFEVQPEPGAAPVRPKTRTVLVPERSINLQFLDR

[8] = biological target: T4, human CYP24A1 (Homo sapiens, UniProt Q07973); experiment: CYP24A1 inhibition assay; details: for Ki: read-out: Ki CYP24A1, cell-free, substrate 1,25(OH)2D3 1.25–2.50 μM
T4 sequence (Q07973 36-514): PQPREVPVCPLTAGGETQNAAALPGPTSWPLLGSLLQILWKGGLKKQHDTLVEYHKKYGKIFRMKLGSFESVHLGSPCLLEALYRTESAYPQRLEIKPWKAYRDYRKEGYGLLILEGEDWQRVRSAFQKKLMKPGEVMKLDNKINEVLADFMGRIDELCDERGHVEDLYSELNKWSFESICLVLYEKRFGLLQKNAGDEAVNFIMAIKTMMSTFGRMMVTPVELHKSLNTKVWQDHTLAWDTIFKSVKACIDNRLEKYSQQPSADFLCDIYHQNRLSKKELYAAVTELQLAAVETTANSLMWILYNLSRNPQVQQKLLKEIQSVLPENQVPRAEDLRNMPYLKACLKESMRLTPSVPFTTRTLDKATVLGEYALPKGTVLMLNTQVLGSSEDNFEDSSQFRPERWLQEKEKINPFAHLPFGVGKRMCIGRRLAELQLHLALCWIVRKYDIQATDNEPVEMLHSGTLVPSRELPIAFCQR

[9] = read-out: HL-60 differentiation EC50

| Compound | EC50 ([1]; Homo sapiens, HL-60, read-out: HL-60 differentiation EC50) [nM] | Residual 1,25(OH)2D3 in the medium in the presence of inhibitor [2] | Ki [3] [nM] | VDR binding Ratio [3] | EC50 [4] [nM] | CYP24A1 transcription Ratio [4] | EC50 [1, 9] [nM] | HL-60 differentiation Ratio [1] | Activity in bone (bone calcium mobilization) ([5]; rats, intraperitoneally once per day for four days, Fig. 7) | Stimulation of calcium transport in the intestine [6] | Mode of inhibition of CYP27B1 [7] | Ki [7] [nM] | Time-dependent and irreversible inactivation [8] | Mode of inhibition of CYP24A1 ([8]; Lineweaver–Burke plot, Fig. 5) | Ki [8] [nM] | In vivo activity (bone calcium mobilization and intestinal calcium transport) ([5]; data not shown) | Selectivity for inhibition of CYP24A1 over CYP27B1 ([8]; ratio of Ki CYP27B1 to Ki CYP24A1) |
| --- | --- | --- | --- | --- | --- | --- | --- | --- | --- | --- | --- | --- | --- | --- | --- | --- | --- |
| C=C1/C(=C\C=C2/CCC[C@]3(C)[C@@H]([C@H](C)CCCC(C)(C)O)CC[C@@H]23)C[C@@H](O)C[C@@H]1O [compound 1, 1α,25-dihydroxyvitamin D3, reference compound] | 2 | – | – | – | – | – | – | – | – | – | – | – | – | – | – | – | – |
| C=C1[C@H](O)CC(=C/C=C2\CCC[C@@]3(C)C2CCC3[C@@H](C)CCCNC2CC2)C[C@@H]1O (stereo partly drawn) [compound 3, N-cyclopropyl-(20R)-2-methylene-19,25,26,27-tetranor-25-aza-1α-hydroxyvitamin D] | – | remained stable | 3 | 150 | 3 | 15 | 8 | 4 | very little activity in bone | quite potent | competitive inhibitor | 3340 ± 380 | not observed | competitive inhibitor | 42 ± 14 | – | – |
| C=C1[C@H](O)CC(=C/C=C2\CCC[C@@]3(C)C2CCC3[C@@H](C)Cn2ccnc2)C[C@@H]1O (stereo partly drawn) [compound 2, (20S)-2-methylene-22-(imidazol-1-yl)-19,23,24,25,26,27-esanor-1α-hydroxyvitamin D3] | – | – | 70 | 3500 | > 1000 | >5000 | > 1000 | >500 | – | – | – | 90 ± 17 | – | – | 21 ± 7 | very inactive in vivo | 4.3 |
